Laboratory results: the CheMixHub viscosity set
± gives the uncertainty stated by the source.

Assay: xn = mol fraction of the nth substance listed

C[NH+](CCO)CCO.O=C[O-] + CO
viscosity [mPa·s], 101 kPa
Details	293.15 K	303.15 K	313.15 K	323.15 K
x1 = 0.0524	26.47 ± 0.54	15.39 ± 0.32	6.822 ± 0.14	4.667 ± 0.097
x1 = 0.1066	52.08 ± 1.1	24.58 ± 0.51	13.12 ± 0.27	8.99 ± 0.18
x1 = 0.2075	103.1 ± 2.3	49.04 ± 1	26.16 ± 0.53	17.87 ± 0.36
x1 = 0.3137	158.6 ± 3.9	77.7 ± 1.6	40.82 ± 0.84	27.89 ± 0.57
x1 = 0.4061	207.6 ± 5.6	102 ± 2.3	54.12 ± 1.1	37.05 ± 0.76
x1 = 0.5016	259.6 ± 7.5	126.3 ± 3	68.64 ± 1.4	47.08 ± 0.96
x1 = 0.6339	339 ± 11	163 ± 4.1	91.65 ± 2	62.82 ± 1.3
x1 = 0.7031	388.3 ± 13	187.2 ± 4.9	106.1 ± 2.4	72.5 ± 1.5
x1 = 0.8195	494.6 ± 17	243.3 ± 6.9	136.4 ± 3.3	92.04 ± 2
x1 = 0.9184	618.8 ± 23	307.1 ± 9.4	167.4 ± 4.3	111.1 ± 2.5
x1 = 0.962	667.2 ± 25	330.3 ± 10	179.6 ± 4.7	118.9 ± 2.8

Nc1ccccc1 + CO
298.15 K, 101 kPa
Details	viscosity [mPa·s]
x1 = 0.0473	0.5608 ± 0.0054
x1 = 0.1001	0.5768 ± 0.0056
x1 = 0.1604	0.6103 ± 0.0058
x1 = 0.2292	0.6583 ± 0.0062
x1 = 0.3082	0.7229 ± 0.0068
x1 = 0.4007	0.8404 ± 0.0078
x1 = 0.5096	1.023 ± 0.0093
x1 = 0.6406	1.322 ± 0.012
x1 = 0.8005	1.867 ± 0.017

COCCOCCOCCOC + COC(=O)OC
298.15 K, 101.33 kPa
Details	viscosity [mPa·s]
x1 = 0.0029	0.592 ± 0.006
x1 = 0.0133	0.606 ± 0.006
x1 = 0.0209	0.618 ± 0.006
x1 = 0.0436	0.651 ± 0.006
x1 = 0.0642	0.679 ± 0.007
x1 = 0.0947	0.721 ± 0.007
x1 = 0.1187	0.753 ± 0.007
x1 = 0.1459	0.792 ± 0.007
x1 = 0.1856	0.846 ± 0.008
x1 = 0.2147	0.888 ± 0.008
x1 = 0.2593	0.953 ± 0.008
x1 = 0.3084	1.026 ± 0.009
x1 = 0.3099	1.025 ± 0.009
x1 = 0.3614	1.099 ± 0.009
x1 = 0.4011	1.157 ± 0.01
x1 = 0.4433	1.221 ± 0.01
x1 = 0.5005	1.303 ± 0.011
x1 = 0.5659	1.396 ± 0.011
x1 = 0.6004	1.449 ± 0.012
x1 = 0.6515	1.524 ± 0.012
x1 = 0.6923	1.585 ± 0.013
x1 = 0.7622	1.673 ± 0.013
x1 = 0.815	1.74 ± 0.014
x1 = 0.8324	1.76 ± 0.014
x1 = 0.9158	1.86 ± 0.014
x1 = 0.9541	1.899 ± 0.015

CC(C)(C)O + COC(C)(C)C
101.33 kPa
Details	viscosity [mPa·s]
303.15 K, x2 = 0.0443	2.726 ± 0.061
303.15 K, x2 = 0.0877	2.236 ± 0.051
303.15 K, x2 = 0.1262	1.894 ± 0.044
303.15 K, x2 = 0.1702	1.587 ± 0.037
303.15 K, x2 = 0.2519	1.192 ± 0.029
303.15 K, x2 = 0.2645	1.146 ± 0.028
303.15 K, x2 = 0.3232	0.9699 ± 0.024
303.15 K, x2 = 0.3619	0.8794 ± 0.022
303.15 K, x2 = 0.4504	0.7203 ± 0.019
303.15 K, x2 = 0.5434	0.5955 ± 0.016
303.15 K, x2 = 0.5686	0.5668 ± 0.015
303.15 K, x2 = 0.6631	0.4759 ± 0.013
303.15 K, x2 = 0.7872	0.3997 ± 0.012
303.15 K, x2 = 0.8887	0.3669 ± 0.011
303.15 K, x2 = 0.9442	0.3487 ± 0.011
313.15 K, x2 = 0.048	1.742 ± 0.041
313.15 K, x2 = 0.0499	1.73 ± 0.041
313.15 K, x2 = 0.0796	1.556 ± 0.037
313.15 K, x2 = 0.092	1.491 ± 0.036
313.15 K, x2 = 0.1717	1.149 ± 0.029
313.15 K, x2 = 0.2531	0.9105 ± 0.024
313.15 K, x2 = 0.267	0.878 ± 0.023
313.15 K, x2 = 0.3697	0.6901 ± 0.02
313.15 K, x2 = 0.4552	0.5827 ± 0.018
313.15 K, x2 = 0.5678	0.4803 ± 0.017
313.15 K, x2 = 0.6723	0.4109 ± 0.016
313.15 K, x2 = 0.7688	0.3634 ± 0.015
313.15 K, x2 = 0.8802	0.3241 ± 0.015
313.15 K, x2 = 0.9456	0.305 ± 0.015
